# “Also recorded” adds a separate entry of the source.
# Legend:
# Type in all cases: cell-based
# SfMCT [1] = molecular target: T1, SfMCT (Syntrophobacter fumaroxidans, UniProt A0LNN5); settings: for Relative uptake of [14C]L-lactate (in %): WT SfMCT, competitor 1 mM final concentration, normalized to control without competitor; for reduction of [14C]L-lactate uptake / competition with [14C]L-lactate uptake (in words): competitor 1 mM
# T1 construct: expressed in transfected cells; host or cells: E. coli JA202 (MC4100 glcA::cat lldP::kan), plasmid pEXT20-SfMCT-3C-10His
# T1 sequence (A0LNN5 1-412): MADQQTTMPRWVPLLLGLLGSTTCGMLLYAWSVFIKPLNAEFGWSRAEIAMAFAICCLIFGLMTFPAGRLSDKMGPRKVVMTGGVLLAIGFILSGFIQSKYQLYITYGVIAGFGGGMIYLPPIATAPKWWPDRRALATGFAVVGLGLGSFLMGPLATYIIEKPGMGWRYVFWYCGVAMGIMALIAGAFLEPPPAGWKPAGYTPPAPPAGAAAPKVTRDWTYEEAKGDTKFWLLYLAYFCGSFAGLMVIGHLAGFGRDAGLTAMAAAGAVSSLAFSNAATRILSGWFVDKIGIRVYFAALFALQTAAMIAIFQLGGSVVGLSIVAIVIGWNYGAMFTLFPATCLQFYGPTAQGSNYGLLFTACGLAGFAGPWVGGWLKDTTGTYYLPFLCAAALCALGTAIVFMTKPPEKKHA
# Protocol: (§1) The cultures were grown at 37 °C and 180 r.p.m. in an incubator shaker (Multitron, Infors HT). Protein expression was induced at OD600 ~0.5 by addition of IPTG to a final concentration of 0.25 mM. After 4 h, bacteria were pelleted (5,200 × g, 10 min, room temperature) and resuspended in uptake buffer (20 mM Bis-Tris propane-HCl (pH 6.7), 250 mM KCl) to a bacteria density of OD600 12. […] Furthermore, [3-3 H] propionic acid sodium salt ([^3H]propionate, American Radiolabeled Chemicals, specific activity 30 Ci/mmol), n-[2,3-3 H] butyric acid sodium salt ([^3H]butyrate, American Radiolabeled Chemicals, specific activity 120 Ci/mmol), and [1–14 C] pyruvic acid sodium salt ([^14C]pyruvate, specific activity 0.055 Ci/mmol American Radiolabeled Chemicals) were also used for transport experiments. […] Uptake experiments were performed in 2 ml reaction tubes (Eppendorf) at 30 °C under agitation (1,000 r.p.m., Thermomixer compact, Eppendorf). […] Bacteria were immediately pelleted by centrifugation (21,000 × g, 4 min, room temperature) and washed two times with 900 μl stop buffer. Finally, bacteria were lyzed in 50 μl 5% (w/v) sodium dodecylsulfate and transferred into a white 96-well plate (Optiplate, PerkinElmer). 150 µl of scintillation cocktail (MicroScint 40, PerkinElmer) were added before measuring each reaction for 2 min with a scintillation counter (TopCount NXT, PerkinElmer). For data analysis, the signal of the empty vector was subtracted from the transporter signal. […] Cpm values of each experiment were normalized with respect to the determined upper plateau value, i.e., the fitted upper plateau value corresponds to 100%. The arithmetic average of three independent experiments was calculated. Three independent and normalized pH-dependence curves were then averaged. For data analysis Prism6 (GraphPad Software) was used. […] Equal amounts of bacteria expressing SfMCT variants were loaded on 14% SDS/polyacrylamide gels. His-tagged transporters were detected using an anti-His5 (Qiagen, catalogue number 34660, primary antibody) at a dilution of 1:3,000 and a goat anti-mouse IgG (H + L) HRP conjugate antibody (Biorad, catalogue number 172-1011, secondary antibody) at a dilution of 1:2,500.
# [2] = test system: vector-transformed E. coli JA202; assay: Uptake of radioligands into vector-transformed bacteria; settings: 0.1 µCi radiolabeled monocarboxylate; vector-transformed bacteria
# Protocol: The cultures were grown at 37 °C and 180 r.p.m. in an incubator shaker (Multitron, Infors HT). Protein expression was induced at OD600 ~0.5 by addition of IPTG to a final concentration of 0.25 mM. After 4 h, bacteria were pelleted (5,200 × g, 10 min, room temperature) and resuspended in uptake buffer (20 mM Bis-Tris propane-HCl (pH 6.7), 250 mM KCl) to a bacteria density of OD600 12. […] Furthermore, [3-3 H] propionic acid sodium salt ([^3H]propionate, American Radiolabeled Chemicals, specific activity 30 Ci/mmol), n-[2,3-3 H] butyric acid sodium salt ([^3H]butyrate, American Radiolabeled Chemicals, specific activity 120 Ci/mmol), and [1–14 C] pyruvic acid sodium salt ([^14C]pyruvate, specific activity 0.055 Ci/mmol American Radiolabeled Chemicals) were also used for transport experiments. […] Uptake experiments were performed in 2 ml reaction tubes (Eppendorf) at 30 °C under agitation (1,000 r.p.m., Thermomixer compact, Eppendorf). […] Bacteria were immediately pelleted by centrifugation (21,000 × g, 4 min, room temperature) and washed two times with 900 μl stop buffer. Finally, bacteria were lyzed in 50 μl 5% (w/v) sodium dodecylsulfate and transferred into a white 96-well plate (Optiplate, PerkinElmer). 150 µl of scintillation cocktail (MicroScint 40, PerkinElmer) were added before measuring each reaction for 2 min with a scintillation counter (TopCount NXT, PerkinElmer). For data analysis, the signal of the empty vector was subtracted from the transporter signal. […] Cpm values of each experiment were normalized with respect to the determined upper plateau value, i.e., the fitted upper plateau value corresponds to 100%. The arithmetic average of three independent experiments was calculated. Three independent and normalized pH-dependence curves were then averaged. For data analysis Prism6 (GraphPad Software) was used. The expression of SfMCT variants in E. coli JA202 (MC4100 glcA::cat lldP::kan)[15] was verified by Western blotting. Equal amounts of bacteria expressing SfMCT variants were loaded on 14% SDS/polyacrylamide gels. His-tagged transporters were detected using an anti-His5 (Qiagen, catalogue number 34660, primary antibody) at a dilution of 1:3,000 and a goat anti-mouse IgG (H + L) HRP conjugate antibody (Biorad, catalogue number 172-1011, secondary antibody) at a dilution of 1:2,500.
# SfMCT [3] = molecular target: T1, SfMCT; assay: Uptake of [14C]L-lactate and other radiolabeled monocarboxylates into SfMCT expressing E. coli JA202; settings: for Uptake of radioligand by SfMCT (cpm): 0.1 µCi radiolabeled monocarboxylate, SfMCT-overexpressing bacteria; for transport by SfMCT (in words): uptake experiment using radiolabeled compound
# Protocol: as §1
compound,measurement,setting,value
"C[C@@H](O)CC(=O)O [3-HBA, (R)-3-hydroxybutyrate]",Relative uptake of [14C]L-lactate (in %),SfMCT [1],93.0096%
same,reduction of [14C]L-lactate uptake,SfMCT [1],5–14%
"N#CC(C#N)=NNc1cccc(Cl)c1 [CCCP, carbonyl cyanide 3-chlorophenylhydrazone, reference compound]",effect on uptake of [14C]L-lactate (in words),SfMCT [1]; 20 µM CCCP,completely abolished
C[C@@H](N)C(=O)O [D-alanine],competition with [14C]L-lactate uptake (in words),SfMCT [1],absence of any competition
C[C@H](N)C(=O)O [L-alanine],competition with [14C]L-lactate uptake (in words),SfMCT [1],absence of any competition
CC(=O)O [acetate],Relative uptake of [14C]L-lactate (in %),SfMCT [1],90.2435%
CCCC(=O)O [butyrate],Uptake of radioligand by vector (cpm),[2],197.333 cpm
same,Uptake of radioligand by SfMCT (cpm),SfMCT [3],160.333 cpm
same,transport by SfMCT (in words),SfMCT [3],not transported; also recorded: without being transported
same,competition with [14C]L-lactate uptake (in words),SfMCT [1],significantly reduced
O=C(O)CC(O)(CC(=O)O)C(=O)O [citrate],reduction of [14C]L-lactate uptake,SfMCT [1],5–14%
O=CO [formate],Relative uptake of [14C]L-lactate (in %),SfMCT [1],96.2179%
O=C(O)/C=C/C(=O)O [fumarate],Relative uptake of [14C]L-lactate (in %),SfMCT [1],61.3393%
O=C(O)CC(=O)O [malonate],Relative uptake of [14C]L-lactate (in %),SfMCT [1],91.3566%
same,reduction of [14C]L-lactate uptake,SfMCT [1],5–14%
O=C(O)C(=O)O [oxalate],Relative uptake of [14C]L-lactate (in %),SfMCT [1],95.2988%
same,reduction of [14C]L-lactate uptake,SfMCT [1],5–14%
CCC(=O)O [propionate],Uptake of radioligand by vector (cpm),[2],198.333 cpm
same,Uptake of radioligand by SfMCT (cpm),SfMCT [3],90.6667 cpm
same,transport by SfMCT (in words),SfMCT [3],not transported; also recorded: without being transported
same,Relative uptake of [14C]L-lactate (in %),SfMCT [1],58.2752%
same,competition with [14C]L-lactate uptake (in words),SfMCT [1],significantly reduced
CC(=O)C(=O)O [pyruvate],Uptake of radioligand by vector (cpm),[2],2551.22 cpm
same,Uptake of radioligand by SfMCT (cpm),SfMCT [3],2342.67 cpm
same,transport by SfMCT (in words),SfMCT [3],not transported; also recorded: does not transport
O=C(O)CCC(=O)O [succinate],Relative uptake of [14C]L-lactate (in %),SfMCT [1],57.9601%
"CC(C)[C@@H]1NC(=O)[C@H](C)OC(=O)[C@@H](C(C)C)NC(=O)[C@@H](C(C)C)OC(=O)[C@H](C(C)C)NC(=O)[C@H](C)OC(=O)[C@@H](C(C)C)NC(=O)[C@@H](C(C)C)OC(=O)[C@H](C(C)C)NC(=O)[C@H](C)OC(=O)[C@@H](C(C)C)NC(=O)[C@@H](C(C)C)OC1=O [valinomycin, reference compound]",effect on transport of [14C]L-lactate (in words),SfMCT [1]; 20 µM valinomycin,no effect

# From PMC6573034 (Nature Communications, 2019)
